In patent publication US20230286946A1, “DIFLUOROMETHYL-PYRIDIN-2-YL TRIAZOLES” (Boehringer Ingelheim International GmbH, priority 2020, published 2023) one finds half-life and Ki data, which are given here for one molecule.

A short description of series [1]: Metabolic stability in human liver microsomes (Human MST). The settings on record: pH 7.6, pooled human liver microsomes, 37° C., read-out: Human MST t½. It is filed as in vitro ADME. On the procedure:
Assessment of Metabolic Stability in Human Liver Microsomes (Human MST) The metabolic stability of the compounds according to the invention may be investigated as follows: The metabolic degradation of the test compound is assayed at 37° C. with pooled human liver microsomes. The final incubation volume of 100 μL per time point contains TRIS buffer pH 7.6 at room temperature (0.1 M), MgCl2 (5 mM), microsomal protein (1 mg/mL) and the test compound at a final concentration of 1 μM. Following a short pre-incubation period at 37° C., the reactions are initiated by addition of beta-nicotinamide adenine dinucleotide phosphate, reduced form (NADPH, 1 mM), and terminated by transferring an aliquot into solvent after different time points. After centrifugation (10000 g, 5 min), an aliquot of the supernatant is assayed by LCMS/MS for the amount of parent compound. The half-life (t1/2) is determined by the slope of the semi-logarithmic plot of the concentration-time profile.

Series [2] concerns the target T1, human GABAA α5β3γ2s receptor (Homo sapiens, UniProt P18507+P31644).
T1 sequence (P18507 1-475): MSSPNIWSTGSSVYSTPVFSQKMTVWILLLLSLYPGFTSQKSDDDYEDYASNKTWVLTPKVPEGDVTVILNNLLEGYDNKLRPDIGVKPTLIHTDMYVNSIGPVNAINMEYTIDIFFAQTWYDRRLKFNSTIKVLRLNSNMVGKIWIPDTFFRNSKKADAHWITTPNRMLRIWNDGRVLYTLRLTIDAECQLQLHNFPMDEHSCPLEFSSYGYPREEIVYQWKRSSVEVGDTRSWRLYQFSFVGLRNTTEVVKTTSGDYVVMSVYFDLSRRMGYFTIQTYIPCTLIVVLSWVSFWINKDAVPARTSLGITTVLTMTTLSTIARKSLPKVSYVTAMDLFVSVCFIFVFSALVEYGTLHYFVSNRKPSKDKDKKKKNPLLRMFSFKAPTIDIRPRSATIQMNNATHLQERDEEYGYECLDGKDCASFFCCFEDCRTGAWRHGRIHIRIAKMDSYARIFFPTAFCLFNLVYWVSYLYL
T1 sequence (P31644 1-462): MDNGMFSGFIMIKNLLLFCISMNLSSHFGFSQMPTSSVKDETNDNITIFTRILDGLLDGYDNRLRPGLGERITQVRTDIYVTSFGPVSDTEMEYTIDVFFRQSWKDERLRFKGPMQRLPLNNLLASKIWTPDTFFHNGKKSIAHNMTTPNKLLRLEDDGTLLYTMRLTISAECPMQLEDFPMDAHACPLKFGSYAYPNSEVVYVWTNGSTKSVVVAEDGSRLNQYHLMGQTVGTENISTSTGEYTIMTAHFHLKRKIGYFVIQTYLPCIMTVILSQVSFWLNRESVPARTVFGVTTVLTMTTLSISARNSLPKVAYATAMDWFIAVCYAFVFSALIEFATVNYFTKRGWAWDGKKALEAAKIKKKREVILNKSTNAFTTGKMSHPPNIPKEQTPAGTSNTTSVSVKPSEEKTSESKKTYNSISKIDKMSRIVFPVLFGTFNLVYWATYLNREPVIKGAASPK
Description: Assay A: in vitro inhibition of 3H-flumazenil binding, HEK cells expressing the human GABAA α5β3γ2s receptor. The settings on record: read-out: Assay A: GABAA α 5 β 3 γ 2s Ki. As for the experimental part: Cell Cultures and Membrane Preparation
HEK-293 cell lines with stable expression of recombinant human GABAA α5ß3 γ2s receptors (plasmid H46/E9/B10) are seeded in T175 polystyrene flasks or roller bottles (1700 cm^2, Fisher Scientific CCI-431191), and cultured (37° C., 5% CO2) in Dulbecco's Modified Eagle Medium (DMEM) with GlutaMAX™ supplemented with 10% fetal bovine serum and one or both of the following antibiotics: hygromycin B ([…]; γ2 subunit) or G418 (0.5 mg/ml; […]).
When the cultures reach confluency, the DMEM is removed and the cells are washed (10 ml for T175 flasks; 50 ml for roller bottles) once in Dulbecco's Phosphate Buffered Saline (DPBS). Following addition of DPBS to the cultures (10 ml for T175 flasks; 100 ml for roller bottles) for approximately 5 min cells are easily detached from the surface by shaking or tapping the flask gently. The cell suspension is transferred to Falcon tubes and centrifuged at 23,500×g for 10 min at 2° C. The pellet is washed once in 15 ml Tris-citrate buffer (50 mM, pH 7.1) using an Ultra-Turrax homogenizer and centrifuged at 2° C. for 10 min at 27,000×g. The washed pellet is re-suspended in 15 ml Tris-citrate buffer and frozen at −80° C. until the day of the binding experiment.
On the day of the experiment the cell membrane preparation is thawed and centrifuged at 2° C. for 10 min at 27,000×g. The pellet is re-suspended, using an Ultra-Turrax homogenizer in Tris-citrate buffer, to 15-50 µg protein per assay and then used for binding assays.
Non-specific binding is determined using clonazepam ([…]).
All dilutions of test compounds and incubation of assay are performed in glass vials/96-vial plates. […] Compounds are dissolved in 100% DMSO (10 mM stock), diluted in 48% ethanol-water, and tested in triplicate in serial 1:3 or 1:10 dilutions. When screening large numbers of compounds only one concentration of each compound is tested in single wells. Reference compounds are not included routinely, but for each experiment performed total and nonspecific binding is compared to data obtained during validation of the assay.
Binding is either terminated by rapid filtration onto
1) Whatman GF/C glass fibre filters using a Brandel Cell harvester, followed by 5 washes with 1 ml ice-cold buffer or onto 2) UniFilter GF/C glass fibre filter plates using a Tomtec cell harvester, followed by washing with approximately 5 ml ice-cold buffer.
The amount of radioactivity on the filters is determined by conventional liquid scintillation counting using a
1) Tri-Garb™ counter (PerkinElmer Life and Analytical Sciences) for separate large filters or
2) Topcount™ counter (PerkinElmer Life and Analytical Sciences) for 96-well filter plates.
Specific binding is total binding minus non-specific binding.
The IC50 value for a test compound is determined based on the equation: […]
where B is the binding in percentage of total specific binding; C is the concentration of test compound; and n is the Hill coefficient. For screening purposes n is set to 1. The IC50 value is calculated from the concentration response curves by the non-linear regression method using the curve-fitting program GraphPad Prism.
The Ki value for a test compound can be calculated from the IC50 value using the equation by Cheng and Prusoff: […]

As a reminder, the Ki is the equilibrium dissociation constant of an inhibitor or competing ligand from its target.

As for `Cc1nnn(-c2ccc(C(F)F)cn2)c1COc1ccc(-c2cnn(C)c2C)nn1` [Example 9], in series [1], the half-life at 1 μM is 1.68 h. Further, the Ki in series [2] stood at 0.013 µM.
